Patent US20030144310A1 (priority 2001, published 2003)

How the values were obtained:
rNPFF-1 [1] = biological target: T1, rNPFF-1 (Rattus norvegicus, UniProt Q9EP86); assay: Radioligand binding assay, competitive displacement of [125I]1DMeNPFF at cloned NPFF receptors; details: cloned rat receptor
T1 construct: expressed in transfected cells

rNPFF-2 [2] = biological target: T2, rNPFF-2 (Rattus norvegicus, UniProt Q9EQD2); assay: as above; details: cloned rat receptor
T2 construct: expressed in transfected cells

rNPFF-1 [3] = biological target: T1, rNPFF-1; assay: Functional activity (EC50 and intrinsic activity relative to NPFF); format: cell-based; details: for Functional Activity rNPFF-1 I.A. %: intrinsic activity as percentage of maximal response by NPFF; for EC50: tested 0.001 nM to 3600 nM
Text: (§1) The data shown are representative of at least two independent experiments.

rNPFF-2 [4] = biological target: T2, rNPFF-2; assay: as above; format: cell-based; details: for Functional Activity rNPFF-2 I.A. %: intrinsic activity as percentage of maximal response by NPFF; for EC50: tested 0.001 nM to 3600 nM, read-out: Functional Activity rNPFF-2 EC50
Text: as §1

rat bladder = assay: Distension-induced rhythmic contraction (DIRC) model, micturition reflex; format: in vivo; details: i.v.; for inhibition of bladder activity, persisted for: anesthetized rat, figure legend (FIG. 1, FIG. 2)
Experimental: The effects of compounds on the micturition reflex were assessed in the “distension-induced rhythmic contraction” (DIRC) model (also called “volume-induced rhythmic contraction” model) in rats, as described in previous publications (e.g. Maggi, et al., 1987; Morikawa, et al., 1992; Guarneri, et al., 1993). This model is widely considered to be predictive for the actions of drugs to treat human urge incontinence (also referred to as detrusor instability or unstable bladder). Examples of drugs that are active in this model which also are used therapeutically in humans include oxybutynin and baclofen (Morikawa et al, 1992); imipramine and nortriptyline (36); and nifedipine and terodiline (37).
Female Sprague Dawley rats weighing approximately 300 g were anesthetized with subcutaneous urethane ([…]). The trachea was cannulated with PE240 tubing to provide a clear airway throughout the experiment. A midline abdominal incision was made and the left and right ureters were isolated. The ureters were ligated distally (to prevent escape of fluids from the bladder) and cannulated proximally with PE10 tubing. The incision was closed using 4-0 silk sutures, leaving the PE10 lines routed to the exterior for the elimination of urine. The bladder was canulated via the transurethral route using PE50 tubing inserted 2.5 cm beyond the urethral opening. This cannula was secured to the tail using tape and connected to a pressure transducer. To prevent leakage from the bladder, the cannula was tied tightly to the exterior urethral opening using 4-0 silk.
To initiate the micturition reflex, the bladder was first emptied by applying pressure to the lower abdomen, and then filled with normal saline in 100 μL increments (maximum=2 ml) until spontaneous bladder contractions occurred (typically 20-40 mmHg) at a rate of one contraction every 2 to 3 minutes. Once a regular rhythm was established, vehicle (saline) or test compounds were administered i.v. to examine their effects on bladder activity. The effect of a compound which inhibited the micturition reflex was expressed as its “disappearance time”, defined as the time between successive bladder contractions in the presence of the test compound minus the time between contractions before compound administration.
Female Sprague Dawley rats weighing approximately 300 g were anesthetized with subcutaneous urethane (1.2 g/kg). The trachea was cannulated with PE240 tubing to provide a clear airway throughout the experiment. A midline abdominal incision was made and the left and right ureters were isolated. The ureters were ligated distally (to prevent escape of fluids from the bladder) and cannulated proximally with PE10 tubing. […]

T1 sequence (Q9EP86 whole entry): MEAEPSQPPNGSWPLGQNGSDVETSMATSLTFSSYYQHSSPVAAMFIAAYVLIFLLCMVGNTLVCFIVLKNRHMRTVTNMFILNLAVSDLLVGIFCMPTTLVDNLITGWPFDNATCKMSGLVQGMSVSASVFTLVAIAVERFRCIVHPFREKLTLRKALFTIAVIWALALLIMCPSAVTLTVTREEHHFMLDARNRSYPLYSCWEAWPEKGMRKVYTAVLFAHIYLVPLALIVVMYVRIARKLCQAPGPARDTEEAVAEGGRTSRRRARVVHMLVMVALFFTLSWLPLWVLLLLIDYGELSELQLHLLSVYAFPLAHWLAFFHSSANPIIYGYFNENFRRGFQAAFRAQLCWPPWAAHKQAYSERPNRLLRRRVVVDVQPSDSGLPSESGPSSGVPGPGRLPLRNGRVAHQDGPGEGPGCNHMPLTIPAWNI
T2 sequence (Q9EQD2 whole entry): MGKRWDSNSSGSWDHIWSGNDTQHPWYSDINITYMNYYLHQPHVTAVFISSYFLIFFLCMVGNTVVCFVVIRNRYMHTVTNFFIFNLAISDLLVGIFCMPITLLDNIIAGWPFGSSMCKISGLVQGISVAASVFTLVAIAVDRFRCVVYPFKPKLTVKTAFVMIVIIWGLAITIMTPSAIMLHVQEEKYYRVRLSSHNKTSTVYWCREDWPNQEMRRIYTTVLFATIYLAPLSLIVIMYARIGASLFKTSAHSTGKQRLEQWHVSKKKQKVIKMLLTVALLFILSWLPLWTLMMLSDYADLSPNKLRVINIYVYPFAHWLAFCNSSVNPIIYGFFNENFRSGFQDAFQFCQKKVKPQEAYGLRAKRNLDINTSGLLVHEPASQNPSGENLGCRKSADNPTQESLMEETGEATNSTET

N=C(N)NCCC[C@H](NS(=O)(=O)c1cccc2ccccc12)C(=O)N[C@@H](Cc1ccccc1)C(N)=O [Compound 1001, N1-[(1S)-2-Amino-1-benzyl-2-oxoethyl]-(2S)-(5-guanidino)-2-[(1-naphthylsulfonyl)amino]pentanamide]
Ki (rNPFF-1 [1]): 261 nM | Ki (rNPFF-2 [2]): 1450 nM | Functional Activity rNPFF-1 I.A. % (rNPFF-1 [3]): 88% | EC50 (rNPFF-1 [3]): 38 nM | Functional Activity rNPFF-2 I.A. % (rNPFF-2 [4]): 81% | EC50 (rNPFF-2 [4]): 527 nM

N=C(N)NCCC[C@H](NS(=O)(=O)c1cccc([N+](=O)[O-])c1)C(=O)N[C@@H](Cc1ccccc1)C(N)=O [Compound 1002]
Ki (rNPFF-1 [1]): 136 nM | Ki (rNPFF-2 [2]): 1250 nM | Functional Activity rNPFF-1 I.A. % (rNPFF-1 [3]): 88% | EC50 (rNPFF-1 [3]): 139 nM | Functional Activity rNPFF-2 I.A. % (rNPFF-2 [4]): 89% | EC50 (rNPFF-2 [4]): 846 nM

Cc1ccc2c(C)cc(NC(=N)N)nc2c1 [N-(4,7-dimethyl-2-quinolinyl)guanidine]
inhibition of distention induced contractions of the rat bladder (rat bladder; 3 mg/kg): complete inhibition | inhibition of bladder activity, persisted for (rat bladder): 12 min

N=C(N)NCCC[C@H](NS(=O)(=O)c1c(F)c(F)c(F)c(F)c1F)C(=O)N[C@@H](Cc1ccccc1)C(N)=O [Compound 1024]
Ki (rNPFF-1 [1]): 486 nM | Ki (rNPFF-2 [2]): 5400 nM | Functional Activity rNPFF-1 I.A. % (rNPFF-1 [3]): 69% | EC50 (rNPFF-1 [3]): 720 nM | Functional Activity rNPFF-2 I.A. % (rNPFF-2 [4]): 43% | EC50 (rNPFF-2 [4]): > 3160 nM

N#Cc1ccccc1S(=O)(=O)N[C@@H](CCCNC(=N)N)C(=O)N[C@@H](Cc1ccccc1)C(N)=O [Compound 1027]
Ki (rNPFF-1 [1]): 515 nM | Ki (rNPFF-2 [2]): 6170 nM | EC50 (rNPFF-1 [3]): 183 nM | EC50 (rNPFF-2 [4]): > 3160 nM

CN(C)c1cccc2c(S(=O)(=O)N[C@@H](CCCN=C(N)N)C(=O)N[C@@H](Cc3ccccc3)C(N)=O)cccc12 [dansyl-RFamide, reference compound]
Ki (rNPFF-1 [1]): 88 nM | Ki (rNPFF-2 [2]): 2310 nM | Functional Activity rNPFF-1 I.A. % (rNPFF-1 [3]): 106% | EC50 (rNPFF-1 [3]): 524 nM | Functional Activity rNPFF-2 I.A. % (rNPFF-2 [4]): 96% | EC50 (rNPFF-2 [4]): 2520 nM

N=C(N)NCCC[C@H](NS(=O)(=O)c1ccc(F)c(Cl)c1)C(=O)N[C@@H](Cc1ccccc1)C(N)=O [Compound 1017]
Ki (rNPFF-1 [1]): 1140 nM | Ki (rNPFF-2 [2]): 3560 nM | Functional Activity rNPFF-1 I.A. % (rNPFF-1 [3]): 84% | EC50 (rNPFF-1 [3]): 376 nM | Functional Activity rNPFF-2 I.A. % (rNPFF-2 [4]): 45% | EC50 (rNPFF-2 [4]): > 3160 nM

Cc1cc(NC(=N)N)nc2ccc(Cl)cc12 [N-(6-chloro-4-methyl-2-quinolinyl)guanidine]
inhibition of distention induced contractions of the rat bladder (rat bladder; 1 mg/kg): complete inhibition | inhibition of bladder activity, persisted for (rat bladder): 35 min
